# Starred links: 1 amine or outer side, 2 acyl side, 3 side chain; linkers in the order of their positions; H or OH if unused. Positions of bridges follow the written chain, without caps; N, C: chain ends. Non-standard residues stand in square brackets, D forms with d. Residues, ends and D or L forms follow the SMILES beside them. Groups on a side chain read outwards from the residue. *: point of attachment. Trp(1-CH2COOH) = N[C@@H](Cc1cn(CC(=O)O)c2ccccc12)C(=O)O; X73 = FC(F)(F)c1cc(NC(=S)*)cc(C(F)(F)F)c1; X8 = NC(=O)c1c[nH]c2c(NC(=S)*)cccc12; X83 = FC(F)(F)c1cc(N*)cc(C(F)(F)F)c1; X50 = COc1cc(NC(=S)*)ccc1-c1cnco1; Hyp = O=C(O)[C@@H]1C[C@@H](O)CN1; X32 = c1ccc2c(c1)Cc1cc(N*)ccc1-2; X28 = Cc1ccc(Cl)c(NC(=S)*)c1Cl; X55 = COc1cc(NC(=S)*)cc(OC)c1; NMeNle = CCCC[C@H](NC)C(=O)O; X20 = O=C(Oc1ccc2ccccc2c1)*; X6 = CCCCCCCOc1ccc(N*)cc1; NMeA = CN[C@@H](C)C(=O)O; βNA = c1ccc2cc(N*)ccc2c1; Dab = NCC[C@H](N)C(=O)O; X45 = c1ccc2sc(N*)cc2c1; Dap = NC[C@H](N)C(=O)O; X37 = Fc1cc(F)cc(N*)c1; X26 = S=C(Nc1ccccc1)*; CO = O=C([*:1])[*:2]
# Molecular target: T1, PD-1/PD-L1 (Homo sapiens, UniProt Q9NZQ7)
# T1 construct: TVMV protease site linker (C); made in house; host or cells: HEK293T cells
# Test: PD-1/PD-L1 Homogenous Time-Resolved Fluorescence (HTRF) binding assay
# Details: not given
# How it was run: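 HTRF read-out using europium cryptate anti-Ig (1 nM) and APC anti-His (20 nM) on extracellular-domain fusion proteins in dPBS/0.1% BSA/0.05% Tween-20. Inhibitor first incubated 15 min with 10 nM PD-L1-His, followed by 20 nM PD-1-Ig for another 15 min.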
# T1 sequence (Q9NZQ7 18-239): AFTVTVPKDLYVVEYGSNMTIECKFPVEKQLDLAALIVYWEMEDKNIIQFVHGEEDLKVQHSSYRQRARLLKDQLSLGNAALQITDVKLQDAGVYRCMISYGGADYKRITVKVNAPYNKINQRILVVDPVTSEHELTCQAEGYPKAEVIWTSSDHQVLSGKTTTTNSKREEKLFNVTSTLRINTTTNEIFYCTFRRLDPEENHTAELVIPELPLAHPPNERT
row,Compound,IC50
1,CCCC[C@H]1C(=O)N(C)[C@@H](CCCC)C(=O)N[C@@H](CC(C)C)C(=O)N[C@H](C(=O)NCC(N)=O)CSCC(=O)N[C@@H](Cc2ccc(O)cc2)C(=O)N(C)[C@@H](C)C(=O)N[C@@H](CC(N)=O)C(=O)N2CCC[C@H]2C(=O)N[C@@H](CNC(=O)Oc2ccc3ccccc3c2)C(=O)N[C@@H](CC(C)C)C(=O)N2C[C@H](O)C[C@H]2C(=O)N[C@@H](Cc2c[nH]c3ccccc23)C(=O)N[C@@H](CCN)C(=O)N[C@@H](Cc2cn(CC(=O)O)c3ccccc23)C(=O)N1C [Example 3045] ({CH2CO}-Y[NMeA]NP[Dap](X20)L[Hyp]W[Dab][Trp(1-CH2COOH)][NMeNle][NMeNle]LCG-NH2; thioether N-14),1.3 nM
2,CCCC[C@H]1C(=O)N(C)[C@@H](CCCC)C(=O)N[C@@H](CC(C)C)C(=O)N[C@H](C(=O)NCC(N)=O)CSCC(=O)N[C@@H](Cc2ccc(O)cc2)C(=O)N(C)[C@@H](C)C(=O)N[C@@H](CC(N)=O)C(=O)N2CCC[C@H]2C(=O)N[C@@H](CNC(=O)Nc2ccc3c(c2)Cc2ccccc2-3)C(=O)N[C@@H](CC(C)C)C(=O)N2C[C@H](O)C[C@H]2C(=O)N[C@@H](Cc2c[nH]c3ccccc23)C(=O)N[C@@H](CCN)C(=O)N[C@@H](Cc2cn(CC(=O)O)c3ccccc23)C(=O)N1C [Example 2009] ({CH2CO}-Y[NMeA]NP[Dap]([CO-X32])L[Hyp]W[Dab][Trp(1-CH2COOH)][NMeNle][NMeNle]LCG-NH2; thioether N-14),3.6 nM
3,CCCC[C@H]1C(=O)N(C)[C@@H](CCCC)C(=O)N[C@@H](CC(C)C)C(=O)N[C@H](C(=O)NCC(N)=O)CSCC(=O)N[C@@H](Cc2ccc(O)cc2)C(=O)N(C)[C@@H](C)C(=O)N[C@@H](CC(N)=O)C(=O)N2CCC[C@H]2C(=O)N[C@@H](CNC(=O)Nc2ccc3ccccc3c2)C(=O)N[C@@H](CC(C)C)C(=O)N2C[C@H](O)C[C@H]2C(=O)N[C@@H](Cc2c[nH]c3ccccc23)C(=O)N[C@@H](CCNC(=O)Nc2ccc3ccccc3c2)C(=O)N[C@@H](Cc2cn(CC(=O)O)c3ccccc23)C(=O)N1C [Example 3001] ({CH2CO}-Y[NMeA]NP[Dap]([CO-βNA])L[Hyp]W[Dab]([CO-βNA])[Trp(1-CH2COOH)][NMeNle][NMeNle]LCG-NH2; thioether N-14),7.3 nM

# Same assay, conditions: PD-L1-His 10 nM pre-incubated with inhibitor, PD-1-Ig 20 nM; read-out: HTRF IC50
row,Compound,IC50
1,CCCC[C@H]1C(=O)N(C)[C@@H](CCCC)C(=O)N[C@@H](CC(C)C)C(=O)N[C@H](C(=O)NCC(N)=O)CSCC(=O)N[C@@H](Cc2ccc(O)cc2)C(=O)N(C)[C@@H](C)C(=O)N[C@@H](CC(N)=O)C(=O)N2CCC[C@H]2C(=O)N[C@@H](CNC(=S)Nc2ccccc2)C(=O)N[C@@H](CC(C)C)C(=O)N2C[C@H](O)C[C@H]2C(=O)N[C@@H](Cc2c[nH]c3ccccc23)C(=O)N[C@@H](CCNC(=S)Nc2ccccc2)C(=O)N[C@@H](Cc2cn(CC(=O)O)c3ccccc23)C(=O)N1C [Example 1001] ({CH2CO}-Y[NMeA]NP[Dap](X26)L[Hyp]W[Dab](X26)[Trp(1-CH2COOH)][NMeNle][NMeNle]LCG-NH2; thioether N-14),1.9 nM
2,CCCC[C@H]1C(=O)N(C)[C@@H](CCCC)C(=O)N[C@@H](CC(C)C)C(=O)N[C@H](C(=O)NCC(N)=O)CSCC(=O)N[C@@H](Cc2ccc(O)cc2)C(=O)N(C)[C@@H](C)C(=O)N[C@@H](CC(N)=O)C(=O)N2CCC[C@H]2C(=O)N[C@@H](CNC(=O)Nc2cc3ccccc3s2)C(=O)N[C@@H](CC(C)C)C(=O)N2C[C@H](O)C[C@H]2C(=O)N[C@@H](Cc2c[nH]c3ccccc23)C(=O)N[C@@H](CCN)C(=O)N[C@@H](Cc2cn(CC(=O)O)c3ccccc23)C(=O)N1C [Example 3032] ({CH2CO}-Y[NMeA]NP[Dap]([CO-X45])L[Hyp]W[Dab][Trp(1-CH2COOH)][NMeNle][NMeNle]LCG-NH2; thioether N-14),9.2 nM
3,CCCC[C@H]1C(=O)N(C)[C@@H](CCCC)C(=O)N[C@@H](CC(C)C)C(=O)N[C@H](C(=O)NCC(N)=O)CSCC(=O)N[C@@H](Cc2ccc(O)cc2)C(=O)N(C)[C@@H](C)C(=O)N[C@@H](CC(N)=O)C(=O)N2CCC[C@H]2C(=O)N[C@@H](CNC(=S)Nc2ccc(-c3cnco3)c(OC)c2)C(=O)N[C@@H](CC(C)C)C(=O)N2C[C@H](O)C[C@H]2C(=O)N[C@@H](Cc2c[nH]c3ccccc23)C(=O)N[C@@H](CCN)C(=O)N[C@@H](Cc2cn(CC(=O)O)c3ccccc23)C(=O)N1C [Example 1028] ({CH2CO}-Y[NMeA]NP[Dap](X50)L[Hyp]W[Dab][Trp(1-CH2COOH)][NMeNle][NMeNle]LCG-NH2; thioether N-14),4.4 nM
4,CCCC[C@H]1C(=O)N(C)[C@@H](CCCC)C(=O)N[C@@H](CC(C)C)C(=O)N[C@H](C(=O)NCC(N)=O)CSCC(=O)N[C@@H](Cc2ccc(O)cc2)C(=O)N(C)[C@@H](C)C(=O)N[C@@H](CC(N)=O)C(=O)N2CCC[C@H]2C(=O)N[C@@H](CNC(=S)Nc2cc(C(F)(F)F)cc(C(F)(F)F)c2)C(=O)N[C@@H](CC(C)C)C(=O)N2C[C@H](O)C[C@H]2C(=O)N[C@@H](Cc2c[nH]c3ccccc23)C(=O)N[C@@H](CCNC(=S)Nc2cc(C(F)(F)F)cc(C(F)(F)F)c2)C(=O)N[C@@H](Cc2cn(CC(=O)O)c3ccccc23)C(=O)N1C [Example 1124] ({CH2CO}-Y[NMeA]NP[Dap](X73)L[Hyp]W[Dab](X73)[Trp(1-CH2COOH)][NMeNle][NMeNle]LCG-NH2; thioether N-14),87 nM
5,CCCC[C@H]1C(=O)N(C)[C@@H](CCCC)C(=O)N[C@@H](CC(C)C)C(=O)N[C@H](C(=O)NCC(N)=O)CSCC(=O)N[C@@H](Cc2ccc(O)cc2)C(=O)N(C)[C@@H](C)C(=O)N[C@@H](CC(N)=O)C(=O)N2CCC[C@H]2C(=O)N[C@@H](CNC(=O)Nc2cc(C(F)(F)F)cc(C(F)(F)F)c2)C(=O)N[C@@H](CC(C)C)C(=O)N2C[C@H](O)C[C@H]2C(=O)N[C@@H](Cc2c[nH]c3ccccc23)C(=O)N[C@@H](CCNC(=O)Nc2cc(C(F)(F)F)cc(C(F)(F)F)c2)C(=O)N[C@@H](Cc2cn(CC(=O)O)c3ccccc23)C(=O)N1C [Example 1015] ({CH2CO}-Y[NMeA]NP[Dap]([CO-X83])L[Hyp]W[Dab]([CO-X83])[Trp(1-CH2COOH)][NMeNle][NMeNle]LCG-NH2; thioether N-14),274 nM
6,CCCC[C@H]1C(=O)N(C)[C@@H](CCCC)C(=O)N[C@@H](CC(C)C)C(=O)N[C@H](C(=O)NCC(N)=O)CSCC(=O)N[C@@H](Cc2ccc(O)cc2)C(=O)N(C)[C@@H](C)C(=O)N[C@@H](CC(N)=O)C(=O)N2CCC[C@H]2C(=O)N[C@@H](CN)C(=O)N[C@@H](CC(C)C)C(=O)N2C[C@H](O)C[C@H]2C(=O)N[C@@H](Cc2c[nH]c3ccccc23)C(=O)N[C@@H](CCNC(=S)Nc2cccc3c(C(N)=O)c[nH]c23)C(=O)N[C@@H](Cc2cn(CC(=O)O)c3ccccc23)C(=O)N1C [Example 3027] ({CH2CO}-Y[NMeA]NP[Dap]L[Hyp]W[Dab](X8)[Trp(1-CH2COOH)][NMeNle][NMeNle]LCG-NH2; thioether N-14),3.9 nM
7,CCCC[C@H]1C(=O)N(C)[C@@H](CCCC)C(=O)N[C@@H](CC(C)C)C(=O)N[C@H](C(=O)NCC(N)=O)CSCC(=O)N[C@@H](Cc2ccc(O)cc2)C(=O)N(C)[C@@H](C)C(=O)N[C@@H](CC(N)=O)C(=O)N2CCC[C@H]2C(=O)N[C@@H](CNC(=S)Nc2c(Cl)ccc(C)c2Cl)C(=O)N[C@@H](CC(C)C)C(=O)N2C[C@H](O)C[C@H]2C(=O)N[C@@H](Cc2c[nH]c3ccccc23)C(=O)N[C@@H](CCN)C(=O)N[C@@H](Cc2cn(CC(=O)O)c3ccccc23)C(=O)N1C [Example 1073] ({CH2CO}-Y[NMeA]NP[Dap](X28)L[Hyp]W[Dab][Trp(1-CH2COOH)][NMeNle][NMeNle]LCG-NH2; thioether N-14),7.9 nM
8,CCCCCCCOc1ccc(NC(=O)NCC[C@@H]2NC(=O)[C@H](Cc3c[nH]c4ccccc34)NC(=O)[C@@H]3C[C@@H](O)CN3C(=O)[C@H](CC(C)C)NC(=O)[C@H](CNC(=O)Nc3ccc(OCCCCCCC)cc3)NC(=O)[C@@H]3CCCN3C(=O)[C@H](CC(N)=O)NC(=O)[C@H](C)N(C)C(=O)[C@H](Cc3ccc(O)cc3)NC(=O)CSC[C@@H](C(=O)NCC(N)=O)NC(=O)[C@H](CC(C)C)NC(=O)[C@H](CCCC)N(C)C(=O)[C@H](CCCC)N(C)C(=O)[C@H](Cc3cn(CC(=O)O)c4ccccc34)NC2=O)cc1 [Example 1090] ({CH2CO}-Y[NMeA]NP[Dap]([CO-X6])L[Hyp]W[Dab]([CO-X6])[Trp(1-CH2COOH)][NMeNle][NMeNle]LCG-NH2; thioether N-14),242 nM
9,CCCC[C@H]1C(=O)N(C)[C@@H](CCCC)C(=O)N[C@@H](CC(C)C)C(=O)N[C@H](C(=O)NCC(N)=O)CSCC(=O)N[C@@H](Cc2ccc(O)cc2)C(=O)N(C)[C@@H](C)C(=O)N[C@@H](CC(N)=O)C(=O)N2CCC[C@H]2C(=O)N[C@@H](CN)C(=O)N[C@@H](CC(C)C)C(=O)N2C[C@H](O)C[C@H]2C(=O)N[C@@H](Cc2c[nH]c3ccccc23)C(=O)N[C@@H](CCNC(=O)Nc2cc(F)cc(F)c2)C(=O)N[C@@H](Cc2cn(CC(=O)O)c3ccccc23)C(=O)N1C [Example 1101] ({CH2CO}-Y[NMeA]NP[Dap]L[Hyp]W[Dab]([CO-X37])[Trp(1-CH2COOH)][NMeNle][NMeNle]LCG-NH2; thioether N-14),8.6 nM
10,CCCC[C@H]1C(=O)N(C)[C@@H](CCCC)C(=O)N[C@@H](CC(C)C)C(=O)N[C@H](C(=O)NCC(N)=O)CSCC(=O)N[C@@H](Cc2ccc(O)cc2)C(=O)N(C)[C@@H](C)C(=O)N[C@@H](CC(N)=O)C(=O)N2CCC[C@H]2C(=O)N[C@@H](CNC(=S)Nc2cc(OC)cc(OC)c2)C(=O)N[C@@H](CC(C)C)C(=O)N2C[C@H](O)C[C@H]2C(=O)N[C@@H](Cc2c[nH]c3ccccc23)C(=O)N[C@@H](CCN)C(=O)N[C@@H](Cc2cn(CC(=O)O)c3ccccc23)C(=O)N1C [Example 1098] ({CH2CO}-Y[NMeA]NP[Dap](X55)L[Hyp]W[Dab][Trp(1-CH2COOH)][NMeNle][NMeNle]LCG-NH2; thioether N-14),3.1 nM

# Source: patent US20220389061A1, “IMMUNOMODULATORS” (priority 2019, published 2022)
